Measurements: ChEMBL document CHEMBL4130553, “Cornusides A-O, Bioactive Iridoid Glucoside Dimers from the Fruit of Cornus officinalis” (J Nat Prod, 2017)

system: HepG2; experiment: Cytotoxicity in human HepG2 cells assessed as reduction in cell viability incubated for 48 hrs by MTT assay; assay type: cell-based; conditions: hepg2, 48 h

Row | Compound | Activity
1 | COC(=O)C1=CO[C@@H](O[C@@H]2O[C@H](CO)[C@@H](O)[C@H](O)[C@H]2O)[C@@H]2[C@H](C)O[C@H](O[C@H]3[C@H](O[C@@H]4OC=C(C(=O)OC)[C@H]5C[C@@H](OC)O[C@@H](C)[C@@H]45)O[C@H](CO)[C@@H](O)[C@@H]3O)C[C@H]12 | Non-Toxic
2 | COC(=O)C1=CO[C@@H](O[C@@H]2O[C@H](C)[C@@H](O)[C@H](O)[C@H]2O)[C@@H]2[C@H](C)O[C@@H](O[C@@H]3[C@@H](O)[C@H](O[C@@H]4OC=C(C(=O)OC)[C@H]5C[C@@H](OC)O[C@@H](C)[C@@H]45)O[C@H](CO)[C@H]3O)C[C@H]12 | Non-Toxic
3 | COC(=O)C1=CO[C@@H](O[C@@H]2O[C@H](CO)[C@@H](O)[C@H](O)[C@H]2O)[C@@H]2[C@H](C)O[C@@H](O)C[C@H]12 [MORRONISIDE] | Non-Toxic
4 | COC(=O)C1=CO[C@@H](O[C@@H]2O[C@H](CO[C@@H]3C[C@@H]4C(C(=O)OC)=CO[C@@H](O[C@@H]5O[C@H](CO)[C@@H](O)[C@H](O)[C@H]5O)[C@@H]4[C@H](C)O3)[C@@H](O)[C@H](O)[C@H]2O)[C@@H]2[C@@H](C)[C@@H](O)C[C@H]12 | Non-Toxic
5 | COC(=O)C1=CO[C@@H](O[C@@H]2O[C@H](CO)[C@@H](O)[C@H](O)[C@H]2O)[C@@H]2[C@H](C)O[C@H](O)C[C@H]12 | Non-Toxic
6 | COC(=O)C1=CO[C@@H](O[C@@H]2O[C@H](CO[C@H]3C[C@@H]4C(C(=O)OC)=CO[C@@H](O[C@@H]5O[C@H](CO)[C@@H](O)[C@H](O)[C@H]5O)[C@@H]4[C@H](C)O3)[C@@H](O)[C@H](O)[C@H]2O)[C@@H]2[C@H](C)O[C@@H](OC)C[C@H]12 | Non-Toxic
7 | COC(=O)C1=CO[C@@H](O[C@@H]2O[C@H](CO[C@@H]3C[C@@H]4C(C(=O)OC)=CO[C@@H](O[C@@H]5O[C@H](CO)[C@@H](O)[C@H](O)[C@H]5O)[C@@H]4[C@H](C)O3)[C@@H](O)[C@H](O)[C@H]2O)[C@@H]2[C@H](C)O[C@@H](OC)C[C@H]12 | Non-Toxic
8 | COC(=O)C1=CO[C@@H](O[C@@H]2O[C@H](CO)[C@@H](O)[C@H](O)[C@H]2O)[C@@H]2[C@H](C)[C@@H](O)C[C@H]12 | Non-Toxic
9 | CCO[C@H]1C[C@@H]2C(C(=O)OC)=CO[C@@H](O[C@@H]3O[C@H](CO)[C@@H](O)[C@H](O)[C@H]3O)[C@@H]2[C@H](C)O1 | Non-Toxic
10 | COC(=O)C1=CO[C@@H](O[C@@H]2O[C@H](CO)[C@@H](O)[C@H](O)[C@H]2O)[C@@H]2[C@H](C)O[C@@H](OC[C@H]3O[C@@H](O[C@@H]4OC=C(C(=O)OC)[C@H]5C[C@@H](OC)O[C@@H](C)[C@@H]45)[C@H](O)[C@@H](O)[C@@H]3O)C[C@H]12 | Non-Toxic
11 | COC(=O)C1=CO[C@@H](O[C@@H]2O[C@H](CO[C@@H]3C[C@@H]4C(C(=O)OC)=CO[C@@H](O[C@@H]5O[C@H](CO)[C@@H](O)[C@H](O)[C@H]5O)[C@@H]4[C@H](C)O3)[C@@H](O)[C@H](O)[C@H]2O)[C@@H]2[C@H](C)O[C@H](OC)C[C@H]12 | Non-Toxic
12 | CCO[C@@H]1C[C@@H]2C(C(=O)OC)=CO[C@@H](O[C@@H]3O[C@H](CO[C@H]4C[C@@H]5C(C(=O)OC)=CO[C@@H](O[C@@H]6O[C@H](CO)[C@@H](O)[C@H](O)[C@H]6O)[C@@H]5[C@H](C)O4)[C@@H](O)[C@H](O)[C@H]3O)[C@@H]2[C@H](C)O1 | Non-Toxic
13 | COC(=O)C1=CO[C@@H](O[C@@H]2O[C@H](CO)[C@@H](O)[C@H](O)[C@H]2O)[C@@H]2[C@H](C)O[C@@H](OC)C[C@H]12 | Non-Toxic
14 | CCO[C@H]1C[C@@H]2C(C(=O)OC)=CO[C@@H](O[C@@H]3O[C@H](CO[C@H]4C[C@@H]5C(C(=O)OC)=CO[C@@H](O[C@@H]6O[C@H](CO)[C@@H](O)[C@H](O)[C@H]6O)[C@@H]5[C@H](C)O4)[C@@H](O)[C@H](O)[C@H]3O)[C@@H]2[C@H](C)O1 | Non-Toxic
15 | COC(=O)C1=CO[C@@H](O[C@@H]2O[C@H](C)[C@@H](O)[C@H](O)[C@H]2O)[C@@H]2[C@H](C)O[C@@H](O[C@@H]3[C@@H](O)[C@H](O[C@@H]4OC=C(C(=O)OC)[C@H]5C[C@H](OC)O[C@@H](C)[C@@H]45)O[C@H](CO)[C@H]3O)C[C@H]12 | Non-Toxic
16 | COC(=O)C1=CO[C@@H](O[C@@H]2O[C@H](CO)[C@@H](O[C@H]3C[C@@H]4C(C(=O)OC)=CO[C@@H](O[C@@H]5O[C@H](C)[C@@H](O)[C@H](O)[C@H]5O)[C@@H]4[C@H](C)O3)[C@H](O)[C@H]2O)[C@@H]2[C@@H](C)[C@@H](O)C[C@H]12 | Non-Toxic
17 | COC(=O)C1=CO[C@@H](O[C@@H]2O[C@H](CO)[C@@H](O)[C@H](O)[C@H]2O)[C@@H]2[C@H](C)O[C@H](O[C@H]3[C@H](O[C@@H]4OC=C(C(=O)OC)[C@H]5C[C@H](OC)O[C@@H](C)[C@@H]45)O[C@H](CO)[C@@H](O)[C@@H]3O)C[C@H]12 | Non-Toxic
18 | C=C[C@H]1[C@H](O[C@@H]2O[C@H](CO)[C@@H](O)[C@H](O)[C@H]2O)OC=C2C(=O)OCC[C@H]21 [SWEROSIDE] | Non-Toxic
19 | CCO[C@@H]1C[C@@H]2C(C(=O)OC)=CO[C@@H](O[C@@H]3O[C@H](CO)[C@@H](O)[C@H](O)[C@H]3O)[C@@H]2[C@H](C)O1 | Non-Toxic
20 | COC(=O)C1=CO[C@@H](O[C@@H]2O[C@H](C)[C@@H](O)[C@H](O)[C@H]2O)[C@@H]2[C@H](C)O[C@@H](O[C@H]3[C@H](O)[C@@H](O)[C@H](O[C@@H]4OC=C(C(=O)OC)[C@H]5C[C@H](OC)O[C@@H](C)[C@@H]45)O[C@@H]3CO)C[C@H]12 | Non-Toxic
21 | COC(=O)C1=CO[C@@H](O[C@@H]2O[C@H](CO)[C@@H](O)[C@H](O)[C@H]2O)[C@@H]2[C@@H](C)[C@@H](O[C@H]3C[C@@H]4C(C(=O)OC)=CO[C@@H](O[C@@H]5O[C@H](CO)[C@@H](O)[C@H](O)[C@H]5O)[C@@H]4[C@@H](C)O3)C[C@H]12 | Non-Toxic
22 | COC(=O)C1=CO[C@@H](O[C@@H]2O[C@H](CO)[C@@H](O)[C@H](O)[C@H]2O)[C@@H]2[C@H](C)O[C@@H](O[C@H]3[C@H](O[C@@H]4OC=C(C(=O)OC)[C@H]5C[C@H](OC)O[C@@H](C)[C@@H]45)O[C@H](CO)[C@@H](O)[C@@H]3O)C[C@H]12 | Non-Toxic
23 | COC(=O)C1=CO[C@@H](O[C@@H]2O[C@H](CO)[C@@H](O)[C@H](O)[C@H]2O[C@@H]2C[C@@H]3C(C(=O)OC)=CO[C@@H](O[C@@H]4O[C@H](CO)[C@@H](O)[C@H](O)[C@H]4O)[C@@H]3[C@H](C)O2)[C@@H]2[C@@H](C)[C@@H](O)C[C@H]12 | Non-Toxic
24 | COC(=O)C1=CO[C@@H](O[C@@H]2O[C@H](CO)[C@@H](O)[C@H](O)[C@H]2O)[C@@H]2[C@H](C)O[C@H](OC)C[C@H]12 | Non-Toxic
25 | COC(=O)C1=CO[C@@H](O[C@@H]2O[C@H](CO)[C@@H](O)[C@H](O)[C@H]2O)[C@@H]2[C@@H](C)[C@@H](O)C[C@H]12 [LOGANIN] | Non-Toxic
